# Assay results from patent EP0196849A2, “Aminohydroxyalkylbenzene anti-obesity and/or anti-hyperglycaemic agents” (BEECHAM GROUP PLC, priority 1985, dated 1986).
# Tested on: Female CFLP mice
# Test: Anti-hyperglycaemic activity: subcutaneous glucose load in fasted mice, area under blood glucose curve
# Format: in vivo
# Settings: 24 h fasted female CFLP mice, glucose 1 g/kg s.c. 30 min after dosing, 2-hour AUC vs water controls
# Procedure: Female CFLP mice, weighing approximately 25g, were fasted for 24 hours prior to the study. The compounds under study were administered orally as an aqueous solution to each of 6 mice. Thirty minutes later a blood sample (20ul) was obtained from the tail for the analysis of blood glucose. Immediately after taking this blood sample, glucose (lg/kg body weight) was administered subcutaneously to each mouse. Six mice were given water as a control. Blood samples were then obtained from each mouse at 30 minute intervals for 120 minutes.
# Compounds that produced a significant (p<0.05) reduction of blood glucose, compared with control mice given water, at any time interval were considered active. The area under the blood glucose curve over the 2-hour period after the administration of the glucose was calculated for each compound and compared with the value for control animals.
# [1] = Dose 5 µmol/kg orally as aqueous solution
compound,measurement,setting,value
"O[C@@H](CNCCc1ccc(CCNC[C@H](O)c2ccccc2)cc1)c1ccccc1 [Example 4, (R,R)-a,a'-[1,4-Phenylenebis [(2,1-ethanediyl)imino]-methylene]bis[benzenemethanol]]",% Reduction in area under blood glucose curve,Dose 12.5 µmol/kg orally as aqueous solution,4.2%
"O[C@@H](CNCCOc1ccc(OCCNC[C@H](O)c2cccc(Cl)c2)cc1)c1cccc(Cl)c1 [Example 5, (R,R)-α,α^1-[1,4-Phenylenedioxybis[(2,1-ethanediyl)-imino]methylene]bis[3-chlorobenzenemethanol]]",% Reduction in area under blood glucose curve,Dose 2.5 µmol/kg orally as aqueous solution,30%
"O[C@@H](CNCCc1ccc(CCNC[C@H](O)c2cccc(Cl)c2)cc1)c1cccc(Cl)c1 [Example 6, (R,R)-a,a'-[1,4-Phenylenebis[(2,1-ethanediyl]imino]-methylene]bis[3-chlorobenzenemethanol]]",% Reduction in area under blood glucose curve,[1],48%
"O[C@@H](CNCCOc1ccc(OCCNC[C@H](O)c2ccccc2)cc1)c1ccccc1 [Example 3, (R,R)-a-a'-[1,4-Phenylenedioxybis [(2,1-ethanediyl)-imino]methylene] bis [benzenemethanol]]",% Reduction in area under blood glucose curve,[1],10%
"C[C@H](Cc1ccc(C[C@@H](C)NC[C@H](O)c2cccc(Cl)c2)cc1)NC[C@H](O)c1cccc(Cl)c1 [Example 2, (R,R,R,R)-α,α'-[1,4-Phenylenebis[(1-methyl-2,1-ethanediyl)imino]methylene]bis[3-chlorobenzenemethanol]]",% Reduction in area under blood glucose curve,Dose 25 µmol/kg orally as aqueous solution,49%
